Assay results: patent US8030043B2, “β-galactoside-α2,3-sialyltransferase, a gene encoding thereof, and a method for producing thereof” (Japan Tobacco Inc., priority 2005, dated 2011)

Experiments:
[1] = system: ISH224-N1C0 recombinant β-galactoside-α2,3-sialyltransferase; assay: Acceptor substrate specificity of recombinant β-galactoside-α2,3-sialyltransferase (mono-, di-, trisaccharides); assay type: biochemical, Photobacterium sp.
Source text: (§1) Cell homogenates prepared from E. coli cells introduced with the third clone of ISH467-N2C0, the first clone of ISH224-N1C0 and the first clone of FAJ-N1C0 were each purified by ion exchange chromatography and hydroxyapatite chromatography to give an electrophoretically single band. The thus purified β-galactoside-α2,3-sialyltransferases were used in the following experiment in order to examine the presence or absence of sialyltransferase activity toward various monosaccharides, disaccharides and trisaccharides.
(§2) A reaction solution (24 μl) was prepared to contain CMP-^14C-NeuAc-containing CMP-NeuAc as a glycosyl donor substrate ([…], final concentration in the reaction solution: […]), any of various glycosyl acceptor substrates dissolved in 20 mM cacodylate buffer (pH 5.0) (1 μmol, final concentration in the reaction solution: 42 mM), sialyltransferase (in an amount as indicated in the footnotes of the tables below) and NaCl (final concentration in the reaction solution: 500 mM), and reacted under conditions as indicated in the footnotes of the tables below. The monosaccharides used as glycosyl acceptor substrates were the following 10 types: methyl-α-D-galactopyranoside (Gal-α-OMe), methyl-(β-D-galactopyranoside (Gal-β-OMe), methyl-α-D-glucopyranoside (Glc-α-OMe), methyl-β-D-glucopyranoside (Glc-β-OMe), methyl-α-D-mannopyranoside (Man-α-OMe), methyl-β-D-mannopyranoside (Man-β-OMe), methyl-α-D-fucopyranoside (Fuc-α-OMe), methyl-β-D-fucopyranoside (Fuc-β-OMe), N-acetylgalactosamine (GalNAc), and N-acetylglucosamine ([…]). The disaccharides used were the following 5 types: lactose (Gal-β1,4-Glc), N-acetyllactosamine (Gal-β1,4-GlcNAc), methyl-β-D-galactopyranosyl-β1,3-N-acetylglucosaminide (Gal-β1,3-GlcNAc-β-OMe), methyl-α-D-galactopyranosyl-α1,3-galactopyranoside (Gal-α-1,3-Gal-α-OMe), and methyl-β-D-galactopyranosyl-β1,3-galactopyranoside (Gal-β1,3-Gal-β-OMe). The trisaccharide used was 2′-fucosyllactose (Fuc-α1,2-Galβ1,4-Glc). It should be noted that the final concentration was set to 8.4 mM for the sugar chains shown in Table 18, i.e., methyl-α-D-galactopyranosyl-α1,3-galactopyranoside (Gal-α1,3-Gal-α-OMe), methyl-β-D-galactopyranosyl-β1,3-galactopyranoside (Gal-β1,3-Gal-β-OMe) and 2′-fucosyllactose (Fuc-α1,2-Gal-β1,4-Glc).
(§3) After completion of the enzymatic reaction, 1.98 ml of 5 mM phosphate buffer (pH 6.8) was added to the reaction solution to stop the enzymatic reaction. Then, the enzymatic reaction solution was diluted with 5 mM phosphate buffer (pH 6.8) and applied in a volume of 2 ml to a AG1−×2 Resin (PO4^3− form, 0.2×2 cm) column. This column was prepared as follows: AG1-x 2 Resin (OH^− form, BIO-RAD) was suspended in 1 M phosphate buffer (pH 6.8), and after 30 minutes, the resin was washed with distilled water and then suspended in distilled water. The eluate (0 to 2 ml) from this column was measured for its radioactivity. The eluate from this column contains the unreacted glycosyl acceptor substrate and the ^14C-NeuAc (N-acetylneuraminic acid)-bound reaction product which was generated by the reaction, but unreacted CMP-14C-NeuAc is still retained on the column. Thus, the radioactivity of ^14C from each sialic acid-containing sugar chain generated as a result of the enzymatic reaction arises exclusively from the reaction product, so that the radioactivity of this fraction can be used to calculate the enzyme activity.
(§4) In the manner described above, the radioactivity of NeuAc transferred to each glycosyl acceptor substrate was measured to calculate the amount of transferred sialic acid.

[2] = system: α2,3-sialyltransferase derived from strain JT-ISH-467; assay: Sialic acid transfer to monosaccharides and disaccharides by partially purified α2,3-sialyltransferase (CMP-14C-NeuAc donor, radioactivity of column eluate); assay type: biochemical, Photobacterium phosphoreum; conditions: 25° C., 4 hours; acceptor 10 μmol (200 mM); CMP-14C-NeuAc 400 nmol; sialyltransferase 0.13 mU; NaCl 500 mM
Description: A cell homogenate prepared from the strain JT-ISH-467 was partially purified by ion exchange chromatography, hydroxyapatite chromatography, and gel filtration chromatography. The thus partially purified α2,3-sialyltransferase was used in the following experiment in order to confirm the transfer of sialic acid to various monosaccharides and disaccharides.
The enzymatic reaction was carried out at 25° C. for 4 hours in a reaction solution (24 μl) prepared to contain CMP-^14C-NeuAc as a glycosyl donor substrate (400 nmol (15600 cpm), final concentration in the reaction solution: 16.6 mM), any of various glycosyl acceptor substrates (10 μmol, final concentration in the reaction solution: 200 mM), sialyltransferase (0.13 mU) and NaCl (final concentration in the reaction solution: 500 mM). The monosaccharides and disaccharides used as glycosyl acceptor substrates were the following 6 substances: methyl-α-D-galactopyranoside (Gal-α-OMe), methyl-β-D-galactopyranoside (Gal-β-OMe), N-acetylgalactosamine (GalNAc), lactose (Gal-β1,4-Glc), N-acetyllactosamine (Gal-β1,4-GlcNAc), and methyl-β-D-galactopyranosyl-β-1,3-N-acetylglucosaminide (Gal-β1,3-GlcNAc-β-OMe).
as §3, with “AG1-×2” for “AG1−×2”, “AG1-×2” for “AG1-x 2”, “CMP-^14C-NeuAc” for “CMP-14C-NeuAc”
as §4

[3] = system: ISH467-N2C0 recombinant β-galactoside-α2,3-sialyltransferase; assay: Acceptor substrate specificity of recombinant β-galactoside-α2,3-sialyltransferase (mono-, di-, trisaccharides); assay type: biochemical, Photobacterium phosphoreum
Source text: as §1, §2, §3, §4

[4] = system: FAJ-N1C0 recombinant β-galactoside-α2,3-sialyltransferase; assay: Acceptor substrate specificity of recombinant β-galactoside-α2,3-sialyltransferase (mono-, disaccharides); assay type: biochemical, Vibrio sp.; design: FAJ-N1C0 Sialyltransferase activity Relative activity (%): tested at 42 mM; conditions: 20° C., 14 hours; for FAJ-N1C0 Sialyltransferase activity: Table 16: 1 μmol acceptor, pH 5.0, about 2.5 mU enzyme; for FAJ-N1C0 Sialyltransferase activity Relative activity (%): Table 16: activity toward lactose set to 100
Source text: as §1, §2, §3, §4

[5] = Table 16: 1 μmol acceptor, pH 5.0, about 2.5 mU enzyme, 20° C., 14 hours
[6] = Table 16: activity toward lactose set to 100, 20° C., 14 hours
[7] = Table 17: 1 μmol acceptor, pH 5.0, 1.0 mU per reaction, 30° C., 0.5 minutes or 2 minutes
[8] = Table 17: activity toward lactose set to 100, 30° C., 0.5 minutes or 2 minutes
[9] = Table 18: activity toward lactose set to 100, 0.2 μmol acceptor, 30° C., 2 minutes
[10] = Table 17: 1 μmol acceptor, pH 5.0, 2.3 mU per reaction, 30° C., 0.5 minutes or 2 minutes

Structure (SMILES)	ISH224-N1C0 Sialyltransferase activity [1, 5] [nmol/min]	ISH224-N1C0 Sialyltransferase activity Relative activity (%) [1, 6] [%]	ISH224-N1C0 Sialyltransferase activity [1, 7] [nmol/min]	ISH224-N1C0 Sialyltransferase activity Relative activity (%) [1, 8] [%]	ISH224-N1C0 Sialyltransferase activity ([1]; Table 18: 0.2 μmol acceptor (8.4 mM), pH 5.0, 1.0 mU per reaction, 30° C., 2 minutes) [nmol/min]	ISH224-N1C0 Sialyltransferase activity Relative activity (%) [1, 9] [%]	Amount of transferred sialic acid [2] [nmol]	ISH467-N2C0 Sialyltransferase activity [3, 5] [nmol/min]	ISH467-N2C0 Sialyltransferase activity Relative activity (%) [3, 6] [%]	ISH467-N2C0 Sialyltransferase activity [3, 10] [nmol/min]	ISH467-N2C0 Sialyltransferase activity Relative activity (%) [3, 8] [%]	ISH467-N2C0 Sialyltransferase activity ([3]; Table 18: 0.2 μmol acceptor (8.4 mM), pH 5.0, 23 mU per reaction, 30° C., 2 minutes) [nmol/min]	ISH467-N2C0 Sialyltransferase activity Relative activity (%) [3, 9] [%]	FAJ-N1C0 Sialyltransferase activity [4] [nmol/min]	FAJ-N1C0 Sialyltransferase activity Relative activity (%) [4] [%]
OC[C@H]1O[C@@H](O[C@H]2[C@H](O)[C@@H](O)C(O)O[C@@H]2CO)[C@H](O)[C@@H](O)[C@H]1O (some centres unmarked) [Lactose, lactose]	8.4	100	1.03	100	1.51	100	57.9	7.8	100	2.29	100	1.64	100	7.6	100
CO[C@H]1O[C@H](CO)[C@H](O)[C@H](O)[C@H]1O [Methylαgalactopyranoside, methyl-α-D-galactopyranoside]	9.5	113	8.49	823	–	–	60.0	10.5	134	10.38	452	–	–	10.3	135
CO[C@@H]1O[C@H](CO)[C@H](O)[C@H](O)[C@H]1O [Methylβgalactopyranoside, methyl-β-D-galactopyranoside]	8.9	105	3.54	343	–	–	50.2	9.1	116	5.77	251	–	–	8.7	114
CC(=O)N[C@H]1C(O)O[C@H](CO)[C@H](O)[C@@H]1O (some centres unmarked) [N-Acetylgalactosamine, N-acetylgalactosamine]	5.8	69	0.78	76	–	–	37.8	5.4	69	0.99	43	–	–	4.4	58
CO[C@@H]1O[C@H](CO)[C@@H](O)[C@H](O[C@@H]2O[C@H](CO)[C@H](O)[C@H](O)[C@H]2O)[C@H]1NC(C)=O [methyl-β-D-galactopyranosyl-β1,3-N-acetylglucosaminide]	9.4	111	1.98	192	–	–	71.1	9.6	122	2.95	129	–	–	9.4	124
